Experimental data reported in patent US4092313A, “Preparation of 5-fluoropyrimidin-4-one derivatives” (Taisho Pharmaceutical Company Limited, priority 1975, dated 1978).

Experiments:
[1] = Acute toxicity, oral administration to mice, LD50 (method of Litchfield and Wilcoxon); type: in vivo; details: mouse, in vivo; for LD50 at 336 h: checked 2 weeks later; for LD50 at 504 h: checked 3 weeks later; for LD50 at 72 h: checked 3 days later; for LD50 at 168 h: checked one week later, read-out: LD50, 1 Week
Description: (§1) The compound of this invention is orally administered to mice, and the mice are checked 3 days, one week, 2 weeks and 3 weeks later for motality in terms of LD50 calculated according to the method of Litchfield and Wilcoxon.

Ehrlich carcinoma = test: Anti-tumor effect, Ehrlich carcinoma subcutaneously transplanted in mouse; type: in vivo; details: oral, once daily for 7 days, tumor weighed on 10th day
Description: (§2) Cells of Ehrlich carcinoma or sarcoma 180, 5 × 10^6 in number, are subcutaneously transplanted in a mouse. Twenty-four hours after the transplantation and during a subsequent period, the compound of this invention is orally given to the test animal once every day for 7 consecutive days. On the 10th day from the transplantation, the weight of tumor in the test animal is measured to determine the percentage of inhibition achieved by the compound relative to the weight of tumor in the control group.

sarcoma 180 = test: Anti-tumor effect, sarcoma 180 subcutaneously transplanted in mouse; type: in vivo; details: oral, once daily for 7 days, tumor weighed on 10th day
Description: as §2

[2] = continued administration, clinical; cited from earlier work
transplanted tumors = details: literature; cited from earlier work
mice = test: Acute toxicity, oral administration to mice, LD50 (method of Litchfield and Wilcoxon); type: in vivo
Description: as §1

Structure (SMILES)	LD50 at 336 h [1] [mg/kg]	LD50 at 504 h [1] [mg/kg]	LD50 at 72 h [1] [mg/kg]	LD50 at 168 h [1] [mg/kg]	Inhibition percentage, Ehrlich carcinoma (tumor weight relative to control) (Ehrlich carcinoma; 90 mg/kg/day) [%]	Inhibition percentage, sarcoma 180 (tumor weight relative to control) (sarcoma 180; 90 mg/kg/day) [%]	side effects [2]	inhibition of transplanted tumors (transplanted tumors)	LD50, 2 Weeks (mice; checked 2 weeks later, 20160 min) [mg/kg]	LD50, 1 Week (mice; checked one week later, 10080 min) [mg/kg]	Inhibition percentage, Ehrlich carcinoma (tumor weight relative to control) (Ehrlich carcinoma; 30 mg/kg/day) [%]	Inhibition percentage, sarcoma 180 (tumor weight relative to control) (sarcoma 180; 30 mg/kg/day) [%]
O=c1[nH]c(OCc2ccccc2)ncc1F [2-Benzyloxy-5-fluoropyrimidin-4-one, 2-benzyloxy-5-fluoropyrimidin-4-one]	894	894	894	894	52	70						
CCCCOc1ncc(F)c(=O)[nH]1 [2-n-Butoxy-5-fluoropyrimidin-4-one, 2-n-butoxy-5-fluoropyrimidin-4-one]	945	945	945	945	64	62						
O=c1[nH]cc(F)c(=O)[nH]1 [5-Fluorouracil, 5-fluorouracil, reference compound]							loss of appetite, stomatitis, nausea, vomiting and like gastrointestinal disorders, leukopenia, thrombocytopenia and like disorders in the blood, disorders in the liver and kidney	found to inhibit transplanted tumors	145	200	61	64
